Laboratory results taken from ChEMBL document CHEMBL4507259 (2021).

What was measured:
[1] = target: 5-hydroxytryptamine receptor 2A (Homo sapiens) (UniProt P28223); assay: 5-HT2A (h) CEREP ligand profiling; settings: filed as antagonist, Compound concentration 10.0 uM
[2] = target: Citron Rho-interacting kinase (Homo sapiens) (UniProt O14578); settings: Compound concentration 1000.0 nM
[3] = target: Adenosine receptor A2a (Homo sapiens) (UniProt P29274); assay: A2A (h) CEREP ligand profiling; settings: filed as agonist, Compound concentration 10.0 uM
[4] = target: Glutamate [NMDA] receptor (Homo sapiens) (UniProt Q05586+Q12879+Q13224+O15399+O60391+Q14957+Q8TCU5); assay: NMDA CEREP ligand profiling; type: protein-complex assay
[5] = target: Serine/threonine-protein kinase MARK1 (Homo sapiens) (UniProt Q9P0L2); settings: Compound concentration 1000.0 nM
[6] = target: Serine/threonine-protein kinase OSR1 (Homo sapiens) (UniProt O95747); settings: Compound concentration 1000.0 nM
[7] = target: Serine/threonine-protein kinase Nek2 (Homo sapiens) (UniProt P51955); settings: Compound concentration 1000.0 nM
[8] = target: Activin receptor type-1-like (Homo sapiens) (UniProt P37023); settings: Compound concentration 1000.0 nM
[9] = target: Ribosomal protein S6 kinase alpha-4 (Homo sapiens) (UniProt O75676); settings: Compound concentration 1000.0 nM
[10] = target: Substance-K receptor (Homo sapiens) (UniProt P21452); assay: NK2 (h) CEREP ligand profiling; settings: filed as agonist, Compound concentration 10.0 uM
[11] = test system: Proto-oncogene tyrosine-protein kinase receptor Ret (Homo sapiens), P07949 [V804M]; settings: Compound concentration 1000.0 nM
[12] = target: Phosphatidylinositol 3-kinase C2 domain-containing subunit gamma (Homo sapiens) (UniProt O75747); settings: Compound concentration 1000.0 nM
[13] = target: Tyrosine-protein kinase BTK (Homo sapiens) (UniProt Q06187); settings: Compound concentration 1000.0 nM
[14] = target: Ribosomal protein S6 kinase alpha-1 (Homo sapiens) (UniProt Q15418); settings: Compound concentration 1000.0 nM
[15] = target: Mitogen-activated protein kinase kinase kinase 6 (Homo sapiens) (UniProt O95382); settings: Compound concentration 1000.0 nM
[16] = test system: Phosphatidylinositol 4,5-bisphosphate 3-kinase catalytic subunit alpha isoform (Homo sapiens), P42336 [H1047L]; settings: Compound concentration 1000.0 nM
[17] = target: Ephrin type-B receptor 6 (Homo sapiens) (UniProt O15197); settings: Compound concentration 1000.0 nM
[18] = target: Cyclin-dependent kinase 8 (Homo sapiens) (UniProt P49336); settings: Compound concentration 1000.0 nM
[19] = target: Histamine H2 receptor (Homo sapiens) (UniProt P25021); settings: Compound concentration 10.0 uM
[20] = target: Serine/threonine-protein kinase MAK (Homo sapiens) (UniProt P20794); settings: Compound concentration 1000.0 nM
[21] = target: Serine/threonine-protein kinase WNK3 (Homo sapiens) (UniProt Q9BYP7); settings: Compound concentration 1000.0 nM
[22] = target: Tyrosine-protein kinase ABL1 (Homo sapiens) (UniProt P00519); settings: Compound concentration 1000.0 nM
[23] = target: Focal adhesion kinase 1 (Homo sapiens) (UniProt Q05397); settings: Compound concentration 1000.0 nM
[24] = target: Serine/threonine-protein kinase Chk1 (Homo sapiens) (UniProt O14757); settings: Compound concentration 1000.0 nM
[25] = target: Casein kinase I isoform delta (Homo sapiens) (UniProt P48730); settings: Compound concentration 1000.0 nM
[26] = target: Proto-oncogene tyrosine-protein kinase Src (Homo sapiens) (UniProt P12931); settings: Compound concentration 1000.0 nM
[27] = target: Mitogen-activated protein kinase kinase kinase 13 (Homo sapiens) (UniProt O43283); settings: Compound concentration 1000.0 nM
[28] = target: Phosphorylase b kinase gamma catalytic chain, skeletal muscle/heart isoform (Homo sapiens) (UniProt Q16816); settings: Compound concentration 1000.0 nM
[29] = target: Serine/threonine-protein kinase SIK2 (Homo sapiens) (UniProt Q9H0K1); settings: Compound concentration 1000.0 nM
[30] = target: Glucocorticoid receptor (Homo sapiens) (UniProt P04150); assay: GR (h) CEREP ligand profiling; settings: filed as agonist, Compound concentration 10.0 uM
[31] = target: Death-associated protein kinase 3 (Homo sapiens) (UniProt O43293); settings: Compound concentration 1000.0 nM
[32] = target: Serine/threonine-protein kinase RIO1 (Homo sapiens) (UniProt Q9BRS2); settings: Compound concentration 1000.0 nM
[33] = target: Myosin light chain kinase family member 4 (Homo sapiens) (UniProt Q86YV6); settings: Compound concentration 1000.0 nM
[34] = target: Serine/threonine-protein kinase 36 (Homo sapiens) (UniProt Q9NRP7); settings: Compound concentration 1000.0 nM
[35] = target: 5'-AMP-activated protein kinase catalytic subunit alpha-2 (Homo sapiens) (UniProt P54646); settings: Compound concentration 1000.0 nM
[36] = target: Protein kinase C delta type (Homo sapiens) (UniProt Q05655); settings: Compound concentration 1000.0 nM
[37] = target: Tyrosine-protein kinase Srms (Homo sapiens) (UniProt Q9H3Y6); settings: Compound concentration 1000.0 nM
[38] = target: Serine/threonine-protein kinase pim-2 (Homo sapiens) (UniProt Q9P1W9); settings: Compound concentration 1000.0 nM
[39] = target: Serine/threonine-protein kinase 25 (Homo sapiens) (UniProt O00506); settings: Compound concentration 1000.0 nM
[40] = target: Protein-tyrosine kinase 2-beta (Homo sapiens) (UniProt Q14289); settings: Compound concentration 1000.0 nM
[41] = target: Testis-specific serine/threonine-protein kinase 1 (Homo sapiens) (UniProt Q9BXA7); settings: Compound concentration 1000.0 nM
[42] = target: Histamine H1 receptor (Homo sapiens) (UniProt P35367); settings: Compound concentration 10.0 uM
[43] = target: Homeodomain-interacting protein kinase 2 (Homo sapiens) (UniProt Q9H2X6); settings: Compound concentration 1000.0 nM
[44] = target: Epithelial discoidin domain-containing receptor 1 (Homo sapiens) (UniProt Q08345); settings: Compound concentration 1000.0 nM

Sequence of Tyrosine-protein kinase BTK (Homo sapiens) (Q06187 whole entry): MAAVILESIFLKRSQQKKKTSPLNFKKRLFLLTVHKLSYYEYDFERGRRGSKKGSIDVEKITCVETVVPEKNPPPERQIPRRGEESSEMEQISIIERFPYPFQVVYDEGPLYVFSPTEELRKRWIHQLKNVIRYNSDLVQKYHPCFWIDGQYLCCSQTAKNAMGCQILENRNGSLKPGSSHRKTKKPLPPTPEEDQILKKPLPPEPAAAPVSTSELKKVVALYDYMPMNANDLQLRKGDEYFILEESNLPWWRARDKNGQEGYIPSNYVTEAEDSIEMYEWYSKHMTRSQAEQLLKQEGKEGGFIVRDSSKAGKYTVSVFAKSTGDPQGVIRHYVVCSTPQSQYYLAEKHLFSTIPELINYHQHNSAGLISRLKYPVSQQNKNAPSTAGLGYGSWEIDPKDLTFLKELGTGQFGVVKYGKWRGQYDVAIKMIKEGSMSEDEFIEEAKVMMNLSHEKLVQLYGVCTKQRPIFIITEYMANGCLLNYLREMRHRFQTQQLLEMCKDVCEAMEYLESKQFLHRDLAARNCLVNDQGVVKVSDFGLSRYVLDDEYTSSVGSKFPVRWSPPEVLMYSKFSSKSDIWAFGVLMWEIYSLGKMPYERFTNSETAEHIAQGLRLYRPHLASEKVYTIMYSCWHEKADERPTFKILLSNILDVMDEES
Sequence of Tyrosine-protein kinase ABL1 (Homo sapiens) (P00519 whole entry): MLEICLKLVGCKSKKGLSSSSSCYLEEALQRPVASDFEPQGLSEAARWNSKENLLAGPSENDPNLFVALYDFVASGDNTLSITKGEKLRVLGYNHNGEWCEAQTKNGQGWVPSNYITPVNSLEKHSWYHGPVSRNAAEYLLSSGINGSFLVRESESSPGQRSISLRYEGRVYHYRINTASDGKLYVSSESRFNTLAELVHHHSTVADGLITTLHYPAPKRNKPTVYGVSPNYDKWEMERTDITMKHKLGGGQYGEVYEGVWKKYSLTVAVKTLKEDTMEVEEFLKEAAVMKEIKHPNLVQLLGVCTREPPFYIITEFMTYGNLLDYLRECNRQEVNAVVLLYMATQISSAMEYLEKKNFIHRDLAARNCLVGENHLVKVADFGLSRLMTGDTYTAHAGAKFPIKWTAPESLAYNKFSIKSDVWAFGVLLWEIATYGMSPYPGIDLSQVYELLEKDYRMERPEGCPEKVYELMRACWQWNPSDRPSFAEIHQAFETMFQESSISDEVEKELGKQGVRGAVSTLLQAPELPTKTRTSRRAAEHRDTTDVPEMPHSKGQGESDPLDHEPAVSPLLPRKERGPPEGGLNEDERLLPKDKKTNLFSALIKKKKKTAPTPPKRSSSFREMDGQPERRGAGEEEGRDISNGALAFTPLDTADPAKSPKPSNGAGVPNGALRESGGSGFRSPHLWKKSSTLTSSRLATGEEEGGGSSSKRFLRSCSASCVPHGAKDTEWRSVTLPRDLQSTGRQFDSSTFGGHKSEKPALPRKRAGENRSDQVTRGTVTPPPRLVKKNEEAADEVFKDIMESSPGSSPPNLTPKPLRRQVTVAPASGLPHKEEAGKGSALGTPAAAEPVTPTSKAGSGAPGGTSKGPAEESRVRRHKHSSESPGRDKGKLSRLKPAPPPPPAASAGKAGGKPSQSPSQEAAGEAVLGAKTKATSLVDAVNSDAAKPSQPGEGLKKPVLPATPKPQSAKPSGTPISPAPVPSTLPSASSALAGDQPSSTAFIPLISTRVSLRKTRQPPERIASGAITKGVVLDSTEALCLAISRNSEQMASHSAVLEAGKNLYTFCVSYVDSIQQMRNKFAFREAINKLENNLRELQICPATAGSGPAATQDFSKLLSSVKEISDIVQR
Sequence of Ephrin type-B receptor 6 (Homo sapiens) (O15197 whole entry): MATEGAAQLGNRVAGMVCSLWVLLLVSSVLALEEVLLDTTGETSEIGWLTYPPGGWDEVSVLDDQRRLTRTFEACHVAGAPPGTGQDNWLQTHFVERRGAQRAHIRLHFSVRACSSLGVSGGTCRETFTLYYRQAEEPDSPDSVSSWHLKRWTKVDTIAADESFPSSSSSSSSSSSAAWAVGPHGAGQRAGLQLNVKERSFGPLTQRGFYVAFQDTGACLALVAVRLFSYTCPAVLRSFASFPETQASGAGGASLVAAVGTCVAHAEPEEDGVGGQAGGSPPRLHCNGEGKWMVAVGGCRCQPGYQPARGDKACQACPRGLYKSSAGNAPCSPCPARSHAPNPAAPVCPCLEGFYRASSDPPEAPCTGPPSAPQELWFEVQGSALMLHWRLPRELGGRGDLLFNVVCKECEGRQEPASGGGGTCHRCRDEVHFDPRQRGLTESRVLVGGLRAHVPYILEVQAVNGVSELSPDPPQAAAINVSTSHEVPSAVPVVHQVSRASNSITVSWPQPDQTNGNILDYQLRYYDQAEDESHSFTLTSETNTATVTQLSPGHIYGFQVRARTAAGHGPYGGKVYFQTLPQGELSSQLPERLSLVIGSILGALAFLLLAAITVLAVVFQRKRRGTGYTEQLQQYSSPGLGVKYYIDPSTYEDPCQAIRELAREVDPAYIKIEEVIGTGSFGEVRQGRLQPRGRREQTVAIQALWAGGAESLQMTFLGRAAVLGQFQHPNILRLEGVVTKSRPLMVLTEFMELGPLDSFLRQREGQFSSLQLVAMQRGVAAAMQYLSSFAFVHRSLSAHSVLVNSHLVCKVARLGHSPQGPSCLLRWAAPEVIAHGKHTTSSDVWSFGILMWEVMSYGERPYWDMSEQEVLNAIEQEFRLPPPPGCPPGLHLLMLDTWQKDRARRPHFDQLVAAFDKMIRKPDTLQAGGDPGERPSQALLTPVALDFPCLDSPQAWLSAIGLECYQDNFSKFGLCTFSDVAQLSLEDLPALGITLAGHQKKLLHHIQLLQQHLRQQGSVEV
Sequence of Phosphorylase b kinase gamma catalytic chain, skeletal muscle/heart isoform (Homo sapiens) (Q16816 whole entry, looked up, canonical isoform): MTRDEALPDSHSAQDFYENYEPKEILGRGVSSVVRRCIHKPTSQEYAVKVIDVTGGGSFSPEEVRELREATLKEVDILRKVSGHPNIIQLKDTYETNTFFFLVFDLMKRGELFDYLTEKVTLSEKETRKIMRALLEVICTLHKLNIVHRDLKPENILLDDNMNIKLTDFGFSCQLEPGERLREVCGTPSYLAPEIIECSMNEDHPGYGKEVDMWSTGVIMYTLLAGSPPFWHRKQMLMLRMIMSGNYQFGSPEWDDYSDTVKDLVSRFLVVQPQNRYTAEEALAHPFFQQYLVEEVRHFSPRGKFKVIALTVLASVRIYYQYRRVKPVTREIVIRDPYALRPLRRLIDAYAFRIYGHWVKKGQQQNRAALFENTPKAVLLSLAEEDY
Sequence of Serine/threonine-protein kinase 25 (Homo sapiens) (O00506 whole entry, looked up): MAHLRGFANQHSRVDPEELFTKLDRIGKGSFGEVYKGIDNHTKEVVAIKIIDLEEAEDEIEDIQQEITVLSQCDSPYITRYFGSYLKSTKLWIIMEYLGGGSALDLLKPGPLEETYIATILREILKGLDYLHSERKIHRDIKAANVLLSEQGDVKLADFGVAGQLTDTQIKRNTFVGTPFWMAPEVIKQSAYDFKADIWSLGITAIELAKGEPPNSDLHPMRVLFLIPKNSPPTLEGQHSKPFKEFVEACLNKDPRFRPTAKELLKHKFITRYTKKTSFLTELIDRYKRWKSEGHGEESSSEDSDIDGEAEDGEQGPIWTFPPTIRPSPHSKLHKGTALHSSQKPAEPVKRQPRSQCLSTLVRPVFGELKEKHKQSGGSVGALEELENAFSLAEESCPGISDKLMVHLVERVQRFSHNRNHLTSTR
Sequence of Ribosomal protein S6 kinase alpha-1 (Homo sapiens) (Q15418 whole entry): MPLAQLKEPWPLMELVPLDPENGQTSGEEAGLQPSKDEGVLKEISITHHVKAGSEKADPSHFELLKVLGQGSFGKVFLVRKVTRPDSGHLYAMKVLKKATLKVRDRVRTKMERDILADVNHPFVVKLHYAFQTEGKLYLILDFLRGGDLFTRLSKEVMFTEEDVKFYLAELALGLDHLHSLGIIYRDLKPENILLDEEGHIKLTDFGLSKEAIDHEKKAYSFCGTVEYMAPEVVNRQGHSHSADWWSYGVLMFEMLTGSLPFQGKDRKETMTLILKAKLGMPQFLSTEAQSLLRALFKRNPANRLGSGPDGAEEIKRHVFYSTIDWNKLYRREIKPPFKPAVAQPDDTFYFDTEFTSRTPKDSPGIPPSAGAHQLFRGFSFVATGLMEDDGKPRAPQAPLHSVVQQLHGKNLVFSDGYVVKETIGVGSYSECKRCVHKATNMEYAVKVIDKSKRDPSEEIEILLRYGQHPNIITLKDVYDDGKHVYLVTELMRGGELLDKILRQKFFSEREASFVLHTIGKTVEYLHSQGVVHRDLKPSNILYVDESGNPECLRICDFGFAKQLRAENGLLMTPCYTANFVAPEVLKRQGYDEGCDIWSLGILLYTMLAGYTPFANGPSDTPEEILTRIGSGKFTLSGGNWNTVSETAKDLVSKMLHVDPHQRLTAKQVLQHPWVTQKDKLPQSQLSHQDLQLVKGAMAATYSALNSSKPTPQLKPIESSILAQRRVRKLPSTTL
Sequence of 5-hydroxytryptamine receptor 2A (Homo sapiens) (P28223 whole entry): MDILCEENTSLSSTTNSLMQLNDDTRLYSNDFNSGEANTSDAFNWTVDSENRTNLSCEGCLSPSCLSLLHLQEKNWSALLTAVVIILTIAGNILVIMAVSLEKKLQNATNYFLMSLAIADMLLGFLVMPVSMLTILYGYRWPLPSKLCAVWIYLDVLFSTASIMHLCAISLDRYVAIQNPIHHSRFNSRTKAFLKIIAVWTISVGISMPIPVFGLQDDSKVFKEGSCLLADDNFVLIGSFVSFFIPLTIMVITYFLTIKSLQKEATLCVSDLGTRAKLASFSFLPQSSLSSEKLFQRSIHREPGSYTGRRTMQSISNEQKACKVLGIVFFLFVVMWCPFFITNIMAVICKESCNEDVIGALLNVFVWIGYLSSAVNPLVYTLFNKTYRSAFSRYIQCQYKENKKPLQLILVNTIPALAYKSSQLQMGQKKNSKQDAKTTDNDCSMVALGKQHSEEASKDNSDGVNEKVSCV

CNC(=O)Nc1ccc2c(c1)[C@@]1(CC2)OC(=O)N(CC(=O)N(Cc2ccc(F)cc2)[C@@H](C)C(F)(F)F)C1=O [A-486]
inhibition [1]: 8%
residual activity [2]: 100%
inhibition [3]: -1%
inhibition ([4]; filed as antagonist, Compound concentration 10.0 uM): 2%
residual activity [5]: 100%
residual activity [6]: 65%
residual activity [7]: 100%
residual activity [8]: 78%
residual activity [9]: 88%
inhibition [10]: 12%
residual activity [11]: 100%
residual activity [12]: 97%
residual activity [13]: 97%
residual activity [14]: 96%
residual activity [15]: 82%
residual activity [16]: 96%
residual activity [17]: 0%
residual activity [18]: 96%
inhibition [19]: 6.93%
residual activity [20]: 100%
residual activity [21]: 63%
residual activity [22]: 93%
residual activity [23]: 100%
residual activity [24]: 100%
residual activity [25]: 100%
residual activity [26]: 90%
residual activity [27]: 100%
residual activity [28]: 100%
residual activity [29]: 88%
inhibition [30]: 16%
residual activity [31]: 100%
residual activity [32]: 100%
residual activity [33]: 100%
residual activity [34]: 100%
residual activity [35]: 57%
residual activity [36]: 75%
residual activity [37]: 88%
residual activity [38]: 89%
residual activity [39]: 100%
residual activity [40]: 83%
residual activity [41]: 100%
inhibition [42]: -7.68%
residual activity [43]: 78%
residual activity [44]: 100%

CNC(=O)Nc1ccc2c(c1)CC[C@@]21OC(=O)N(CC(=O)N(Cc2ccc(F)cc2)[C@@H](C)C(F)(F)F)C1=O [A-485]
inhibition [1]: 14%
residual activity [2]: 92%
inhibition [3]: 7%
inhibition ([4]; filed as antagonist; Compound concentration 10.0 uM): 4%
residual activity [5]: 89%
residual activity [6]: 80%
residual activity [7]: 100%
residual activity [8]: 72%
residual activity [9]: 72%
inhibition [10]: 18%
residual activity [11]: 98%
residual activity [12]: 75%
residual activity [13]: 87%
residual activity [14]: 86%
residual activity [15]: 86%
residual activity [16]: 95%
residual activity [17]: 96%
residual activity [18]: 100%
inhibition [19]: 28.2%
residual activity [20]: 84%
residual activity [21]: 83%
residual activity [22]: 84%
residual activity [23]: 94%
residual activity [24]: 98%
residual activity [25]: 99%
residual activity [26]: 91%
residual activity [27]: 68%
residual activity [28]: 100%
residual activity [29]: 88%
inhibition [30]: 13%
residual activity [31]: 86%
residual activity [32]: 100%
residual activity [33]: 70%
residual activity [34]: 77%
residual activity [35]: 99%
residual activity [36]: 76%
residual activity [37]: 83%
residual activity [38]: 98%
residual activity [39]: 99%
residual activity [40]: 73%
residual activity [41]: 84%
inhibition [42]: 1.99%
residual activity [43]: 95%
residual activity [44]: 100%
